Values quoted from earlier work, collected in patent US20250302750A1, “PHARMACEUTICAL COMPOSITION OF BEMPEDOIC ACID” (Renata Pharmaceuticals (Ireland) Ltd, priority 2022, published 2025).

How the values were obtained:
[1] = solid state; per US 20180338922

CC(C)(CCCCCC(O)CCCCCC(C)(C)C(=O)O)C(=O)O [Bempedoic acid]
Flow characteristics [1]: poor flow characteristics | Stickiness [1]: very sticky | Solubility in water: poorly soluble
